In article PMC6100113, “Involvement of CYP4F2 in the Metabolism of a Novel Monophosphate Ester Prodrug of Gemcitabine and Its Interaction Potential In Vitro” (Molecules : A Journal of Synthetic Chemistry and Natural …, 2018):

How the values were obtained:
Assay type in all cases: in vitro ADME
[1] = Metabolite identification by UPLC/Triple TOF MS in rat liver microsomes; parameters: key: √: metabolites were detected by high-resolution mass spectrometry; details: Compound-3 10 μM, 1 mg/mL microsomes, NADPH, 60 min, HRMS
Description: For metabolite identification, a higher concentration of Compound-3 (10 μM) was incubated with liver microsomes (1 mg/mL) in the presence of NADPH (1 mM) and primary human hepatocytes at a density of 1 × 10^6 cell/mL. Samples were collected at 0 min and 60 min with the addition of ice-cold acetonitrile. After vortexing and centrifugation, the supernatant was transferred into a new tube and evaporated to dryness. The samples were then reconstituted in 100 μL of water and methanol (v/v, 9:1). An aliquot of 10 μL of reconstituted solution was injected into UPLC/Triple TOF 5600^+ MS for metabolite identification.
Identification of Compound-3 metabolites was carried out using Acquity UPLC/Triple TOF 5600^+ system. Chromatographic separation for Compound-3 and its metabolites were achieved by an Acquity UPLC HSS T3 column (100 × 2.1 mm i.d., […]; Waters Corp.) maintained at 40 °C. The mobile phase was a mixture of 0.02% formic acid in 5 mM ammonium acetate (A) and methanol (B). The gradient elution was started from 2% B and maintained for 4 min, then increased linearly to 75% B over the next 4 min and maintained for 8 min. […] The flow rate was 0.4 mL/min and the eluent was monitored by UV detection at 280 nm.
For mass detection, a Triple TOF 5600^+ mass spectrometer (AB Sciex, Framingham, MA, USA) was operated in positive ion electrospray (ES-positive) mode with the source temperature at 500 °C and scan range from m/z 100 to 1000 Da. Other parameters were set as follows: ion spray voltage, 5500 V; decluttering potential, 80 V; curtain gas, 40 psi; ion source gas 1, 55 psi; and ion source gas 2, 50 psi. Collision energies of 25 and 65 eV were used for TOF MS and product ion scans, respectively, and a collision energy spread of 20 was used in the MS/MS analysis. Information-dependent acquisition (IDA), together with real-time multiple mass defect filter, was used to trigger acquisition of MS/MS spectra.

alkaline phosphatase = test: Hydrolysis of Compound-3 by alkaline phosphatase (gemcitabine formation); parameters: key to detected in matrix ALP: √: metabolites were detected by high-resolution mass spectrometry
Description: Compound-3 was incubated with alkaline phosphatase, and the linearity of gemcitabine formation as a function of time and protein concentration was first examined. The reaction mixtures consisted of alkaline phosphatase, 100 mM phosphate buffer (pH 7.4) and Compound-3 (10 μM). The final volume of the incubation mixture was 200 μL. The mixture was warmed up at 37 °C for 2 min prior to the initiation of the reaction with the addition of the enzyme. At specified time points, 25 μL of the incubation mixtures was added to 100 μL cold acetonitrile containing the internal standard to terminate the reaction. Levels of gemcitabine were determined by LC-MS/MS. […] Compound-3 was tested at concentrations ranging from 0 to 200 μM. Kinetic parameters of Compound-3 in alkaline phosphatase were calculated using GraphPad Prism (Version 6.0, GraphPad Software Inc., San Diego, CA) and nonlinear regression analysis. Equation used was as the following (the Michaelis-Menten equation):V = (Vmax × [S])/(Km + [S])(1) where V is the rate of metabolite formation, Vmax is the maximum velocity, Km is the Michaelis constant (substrate concentration at 0.5 Vmax), and [S] is the substrate concentration.

[2] = Metabolic stability in rat intestinal microsomes; details: rat intestinal microsomes 0.2 mg/mL, with NADPH, 1 μM, 37 °C
Description: Stability of Compound-3 was first investigated in microsomal systems from human and rat. The microsomal protein and Compound-3 concentrations were optimized to 0.2 mg/mL and 1 µM, respectively. Before the start of the incubation, reaction mixtures containing phosphate buffer (100 mM, pH 7.4), microsomes and Compound-3 in a total volume of 50 µL were warmed up at 37 °C for 10 min. The reaction was started with the addition of NADPH at a final concentration of 1 mM. Incubations were terminated at a specified time with the addition of 100 µL ice-cold acetonitrile containing the internal standard. The samples were then centrifuged, and aliquots of 10 µL of the supernatants were transferred into liquid chromatography-tandem mass spectrometry (LC-MS/MS) for the analysis of Compound-3 levels.

[3] = alkaline phosphatase 0.1 mg/mL protein, 60 min, 37 °C, Michaelis-Menten

## CCCCCCCCCCCCCCCCCCOCCOP(=O)(O)OCC1OC(n2ccc(N)nc2=O)C(F)(F)C1O (centres unmarked) [Compound-3]
[1]
  detected in matrix RLM: √
Alkaline phosphatase; [3]
  Km: 57.2 µM
  Vmax of gemcitabine formation: 60.8 pmol/min/mg-protein
Alkaline phosphatase; incubation of Compound-3 with alkaline phosphatase, HRMS
  detected in matrix ALP: √
[2]
  disappearance in 60 min: ~ 20%
